# System: HEY cells
# Test: microarray profiling (Affymetrix HG-U133 Plus 2.0) of miR-429 transfected HEY cells
# Type: cell-based, human
# Settings: for Fold-change: miR-429 transfected HEY cells
# Method: 6×10^4 cells per well were seeded in 24-well plates. After 24 h, cells were transfected with 30 nM of miR-429 and miR-320 miRNA oligonucleotides (Ambion, Austin, Tex.) using Lipofectamine 2000 reagent (Invitrogen, Carlsbad, Calif.). The Ambion Pre-miRNA Precursor Negative Control was used as a control. Three days after transfection, cells were split and transfected again. This process was repeated every 3 days until 21 days when cells were assayed for response.
# Microarray analyses were performed using the Affymetrix system (HG-U133 Plus 2.0; Santa Clara, Calif.) as previously described [Bowen et al., BMC Med Genomics 2009, 2:71]. Briefly, the expression data were analyzed using MAS 5.0 Statistical Algorithm encoded in the Affymetrix Expression Console application. The expression values were normalized across samples by Z-score calculation using Spotfire Decision Site software. […] Gene enrichment analyses were carried out using GeneGO (http://www.genego.com/) gene ontology software.
substance,measurement,setting,value
"miR-429: miR-200 family member; mature miRNA UAAUACUGUCUGGUAAAACCGU (SEQ ID NO: 6); miRNA oligonucleotide (Ambion) transfected at 30 nM (listed as RNA, chemistry not given here; listed as Homo sapiens) [miR-200 family member; miRNA oligonucleotide (Ambion) transfected at 30 nM]",Fold change (miR-429 transfected HEY cells relative to negative controls),gene AARS,−2.57
same,Fold change (miR-429 transfected HEY cells relative to negative controls),gene ABCF2,−3.48
same,Fold change (miR-429 transfected HEY cells relative to negative controls),gene ALDH1L2,−11.31
same,Fold change (miR-429 transfected HEY cells relative to negative controls),gene ANK2,−3.58
same,Fold change (miR-429 transfected HEY cells relative to negative controls),gene ANKRD23,−7.62
same,Fold change (miR-429 transfected HEY cells relative to negative controls),gene ASAM,−3.48
same,Fold change (miR-429 transfected HEY cells relative to negative controls),gene ASNS,−6.82
same,Fold-change,gene B3GALNT2,−2.16
same,Fold change (miR-429 transfected HEY cells relative to negative controls),gene BCHE,−2.93
same,Fold change (miR-429 transfected HEY cells relative to negative controls),gene C6orf105,−2.48
same,Fold change (miR-429 transfected HEY cells relative to negative controls),gene C11orf57,−2.41
same,Fold change (miR-429 transfected HEY cells relative to negative controls),gene C12orf39,−10.06
same,Fold change (miR-429 transfected HEY cells relative to negative controls),gene C12orf55,−6.06
same,Fold change (miR-429 transfected HEY cells relative to negative controls),gene C17orf51,−3.46
same,change in expression by microarray,gene CAV2 (epithelial marker),up-regulated
same,Fold change (miR-429 transfected HEY cells relative to negative controls),gene CBS,−2.68
same,Fold change (miR-429 transfected HEY cells relative to negative controls),gene CCDC148,−3.39
same,Fold change (miR-429 transfected HEY cells relative to negative controls),gene CCDC152,−3.10
same,Fold change (miR-429 transfected HEY cells relative to negative controls),gene CCND2,−4.03
same,Fold change (miR-429 transfected HEY cells relative to negative controls),gene CCNJ,−2.45
same,Fold change (miR-429 transfected HEY cells relative to negative controls),gene CDC42EP1,−3.48
same,Fold change (miR-429 transfected HEY cells relative to negative controls),gene CDKAL1,−2.64
same,Fold change (miR-429 transfected HEY cells relative to negative controls),gene CDO1,−13.45
same,Fold-change,gene CFL2,−1.75
same,Fold change (miR-429 transfected HEY cells relative to negative controls),gene CHST10,−4.03
same,Fold change (miR-429 transfected HEY cells relative to negative controls),gene CLGN,−2.79
same,Fold change (miR-429 transfected HEY cells relative to negative controls),gene COLEC12,−16.11
same,Fold change (miR-429 transfected HEY cells relative to negative controls),gene CXCL3,−2.57
same,Fold change (miR-429 transfected HEY cells relative to negative controls),gene CYCS,−2.73
same,Fold change (miR-429 transfected HEY cells relative to negative controls),gene DDR2,−2.68
same,Fold-change,gene DNAJB4,−1.53
same,Fold-change,gene DPY19L1,−1.64
same,change in expression by microarray,gene DSP (epithelial marker),up-regulated
same,Fold-change,gene EIF2B5,−2.10
same,change in expression by microarray,gene EPCAM (epithelial marker),up-regulated
same,Fold change (miR-429 transfected HEY cells relative to negative controls),gene EPHB1,−4.06
same,Fold change (miR-429 transfected HEY cells relative to negative controls),gene ERN1,−3.51
same,Fold change (miR-429 transfected HEY cells relative to negative controls),gene EXOSC6,−2.87
same,Fold change (miR-429 transfected HEY cells relative to negative controls),gene F2RL2,−5.35
same,Fold change (miR-429 transfected HEY cells relative to negative controls),gene FLJ34077,−2.73
same,Fold change (miR-429 transfected HEY cells relative to negative controls),gene FOXP3,−3.76
same,Fold change (miR-429 transfected HEY cells relative to negative controls),gene GALNT12,−2.39
same,Fold change (miR-429 transfected HEY cells relative to negative controls),gene GART,−3.94
same,Fold change (miR-429 transfected HEY cells relative to negative controls),gene GAS7,−12.55
same,Fold change (miR-429 transfected HEY cells relative to negative controls),gene GLIPR1,−2.73
same,Fold change (miR-429 transfected HEY cells relative to negative controls),gene GLT8D2,−4.76
same,Fold change (miR-429 transfected HEY cells relative to negative controls),gene GPATCH4,−2.87
same,Fold-change,gene GREM1,−2.10
same,Fold change (miR-429 transfected HEY cells relative to negative controls),gene GRK4,−3.14
same,Fold change (miR-429 transfected HEY cells relative to negative controls),gene HIF3A,−3.12
same,Fold change (miR-429 transfected HEY cells relative to negative controls),gene HORMAD1,−10.48
same,Fold change (miR-429 transfected HEY cells relative to negative controls),gene HS6ST3,−2.64
same,Fold change (miR-429 transfected HEY cells relative to negative controls),gene HSPA9,−2.48
same,Fold change (miR-429 transfected HEY cells relative to negative controls),gene INTS4,−2.81
same,Fold change (miR-429 transfected HEY cells relative to negative controls),gene JDP2,−3.46
same,Fold change (miR-429 transfected HEY cells relative to negative controls),gene KIAA1853,−3.32
same,Fold change (miR-429 transfected HEY cells relative to negative controls),gene KLHL13,−2.57
same,Fold-change,gene LDLRAD3,−1.74
same,Fold change (miR-429 transfected HEY cells relative to negative controls),gene LMO4,−3.14
same,Fold change (miR-429 transfected HEY cells relative to negative controls),gene LOC148189,−2.69
same,Fold change (miR-429 transfected HEY cells relative to negative controls),gene LOC148987,−3.07
